Laboratory results as given in US9458479B2, “Method for late introduction of the (8R) hydroxyl group carbapenem β-lactam antibiotic synthesis” (THE JOHNS HOPKINS UNIVERSITY, priority 2009, dated 2016).

How the values were obtained:
[1] = tested on: ThnG; experiment: In vitro reaction of carbapenam/ems with purified ThnG, HPLC and ESI-MS analysis of products; assay type: biochemical, Streptomyces cattleya; settings: 1 mM substrate, 0.2 mg/mL ThnG, 25 mM MOPS pH 7.0, ferrous ammonium sulfate, α-KG, ascorbate, room temperature 1 h
Procedure: (§1) Thienamycin biosynthetic cluster genes thnG and thnQ were cloned from genomic DNA and inserted into pET29b each bearing a C-terminal His6-tag. The recombinant proteins were overproduced in E. coli Rosetta2(DE3) and purified by Ni-NTA affinity chromatography. In vitro reactions in MOPS, pH 7.0, containing Fe(NH4)2(SO4)2, α-KG, ascorbate, the subject carbapenam/em, and either ThnG or ThnQ were incubated and analyzed by HPLC for the formation of new product(s). Salowe, S. P., et al., Biochemistry 29(27):6499-6508 (1990); Decristoforo, G. Anal. Chim. Acta 163(SEP):25-33 (1984). […] The products were immediately identifiable as carbapenems by their unique chromophores (λmax=290-320 nm). ThnQ produced a single new product more polar than 5, while ThnG produced two products, one with a shorter retention time and one with a longer retention time than that of 5.
For routine HPLC analysis, reactions were assembled containing 25 mM MOPS, pH 7.0, 1 mM ascorbate, 0.08 mM ferrous ammonium sulfate, 8 mM α-ketoglutarate (α-KG), 1 mM of the substrate and 0.2 mg/mL ThnG or ThnQ. Salowe, S. P., et al., Biochemistry 29(27):6499-6508 (1990). After addition of the protein, the reactions were incubated at room temperature for 1 h. The protein was then removed with an Amicon Ultra 10,000 MWCO filter. For ESI mass spectroscopic analysis of HPLC purified enzymatic products, reactions were assembled under similar conditions except containing 2 mM substrate, 2 mM ascorbate and 0.6 mg/mL ThnG or ThnQ.
(§2) HPLC conditions: Phenomenex Luna 5 μC18(2) analytical column; Method 1, A=50 mM ammonium formate pH 8.5, B=MeOH, t=0 min 0% B, t=10 min 35% B, t=13 min 35% B, t=15 min 0% B, t=20 min 0% B. Method 2, A=50 mM ammonium formate pH 8.5, B=MeOH, t=0 min 0% B, t=10 min 33% B, t=18 min 33% B, t=20 min 0% B, t=25 min 0% B. λ=300 nm (carbapenem) or 220 nm (carbapenam). Decristoforo, G., Anal. Chim. Acta 163:25-33 (1984). Purified carbapenems were collected from the HPLC and analyzed directly by ESI mass spectrometry in the negative ion mode.

[2] = tested on: ThnQ; experiment: In vitro reaction of carbapenam/ems with purified ThnQ, HPLC and ESI-MS analysis of products; assay type: biochemical, Streptomyces cattleya; settings: 1 mM substrate, 0.2 mg/mL ThnQ, 25 mM MOPS pH 7.0, ferrous ammonium sulfate, α-KG, ascorbate, room temperature 1 h
Procedure: as §1, with “5. […]” for “5.”
as §2, with “Decristoforo, G., Anal. Chim. Acta 163:25-33 (1984).” left out

| Structure (SMILES) | product(s) of the ThnG-catalyzed reaction (HPLC, ESI-MS) [1] | product(s) of the ThnQ-catalyzed reaction (HPLC, ESI-MS) [2] |
| --- | --- | --- |
| CC(=O)NCCSC1=C(C(=O)O)N2C(=O)[C@H]([C@@H](C)O)[C@H]2C1 [compound 2, N-acetyl thienamycin] | N-acetyl dehydrothienamycin (3) |  |
| CC[C@H]1C(=O)N2C(C(=O)O)=C(SCCNC(C)=O)C[C@H]12 [compound 5, PS-5] | identified as PS-7 (7) and PS-7 sulfoxide 9 | stereospecifically hydroxylated PS-5 (5) to produce 2 |
| CCC1C(=O)N2C(C(=O)O)=C(S/C=C/NC(C)=O)CC12 (stereo not drawn) [compound 7, PS-7] | able to convert 7 to its sulfoxide | N-acetyl dehydrothienamycin (3) |
| CCC1C(=O)N2C(C(=O)O)=C([S+]([O-])CCNC(C)=O)CC12 (stereo not drawn) [compound 8, PS-5 sulfoxide] | unable to catalyze desaturation |  |
